Experimental data taken from the supplement of paper PMC13380429.

Key:
Conditions in all cases: 72 h
Caco-2 [1] = assay: relative viability EC50 (midpoint between 100% and the lowest measured viability); higher = less toxic
HepG2 [2] = assay: as above
U2OS [3] = assay: as above
Calu-3 [4] = assay: as above
Vero E6 [5] = assay: as above
Caco-2 [6] = assay: drug sensitivity score (DSS) for viability; higher = more toxic; extreme values may be limits of the assay
HepG2 [7] = assay: as above
U2OS [8] = assay: as above
Calu-3 [9] = assay: as above
Vero E6 [10] = assay: as above
Caco-2 [11] = assay: cell viability relative to DMSO; higher = less toxic
HepG2 [12] = assay: as above
U2OS [13] = assay: as above
Calu-3 [14] = assay: as above
Vero E6 [15] = assay: as above

Row | Compound | relative viability EC50 (Caco-2 [1]) [nM] | relative viability EC50 (HepG2 [2]) [nM] | relative viability EC50 (U2OS [3]) [nM] | relative viability EC50 (Calu-3 [4]) [nM] | relative viability EC50 (Vero E6 [5]) [nM] | drug sensitivity score (Caco-2 [6]) | drug sensitivity score (HepG2 [7]) | drug sensitivity score (U2OS [8]) | drug sensitivity score (Calu-3 [9]) | drug sensitivity score (Vero E6 [10]) | cell viability (Caco-2 [11]; 1 nM) [%] | cell viability (Caco-2 [11]; 10 nM) [%] | cell viability (Caco-2 [11]; 100 nM) [%] | cell viability (Caco-2 [11]; 1000 nM) [%] | cell viability (Caco-2 [11]; 10000 nM) [%] | cell viability (HepG2 [12]; 1 nM) [%] | cell viability (HepG2 [12]; 10 nM) [%] | cell viability (HepG2 [12]; 100 nM) [%] | cell viability (HepG2 [12]; 1000 nM) [%] | cell viability (HepG2 [12]; 10000 nM) [%] | cell viability (U2OS [13]; 1 nM) [%] | cell viability (U2OS [13]; 10 nM) [%] | cell viability (U2OS [13]; 100 nM) [%] | cell viability (U2OS [13]; 1000 nM) [%] | cell viability (U2OS [13]; 10000 nM) [%] | cell viability (Calu-3 [14]; 1 nM) [%] | cell viability (Calu-3 [14]; 10 nM) [%] | cell viability (Calu-3 [14]; 100 nM) [%] | cell viability (Calu-3 [14]; 1000 nM) [%] | cell viability (Calu-3 [14]; 10000 nM) [%] | cell viability (Vero E6 [15]; 1 nM) [%] | cell viability (Vero E6 [15]; 10 nM) [%] | cell viability (Vero E6 [15]; 100 nM) [%] | cell viability (Vero E6 [15]; 1000 nM) [%] | cell viability (Vero E6 [15]; 10000 nM) [%]
1 | Cc1cnc(Nc2ccc(N3CCN(C)CC3)cc2)nc1Nc1cccc(S(=O)(=O)NC(C)(C)C)c1 | 1200 | 800 | 1550 | 1920 | 2410 | 9.7 | 9 | 9.3 | 7.1 | 7 | 96.3 | 101 | 98.4 | 64.3 | 9.6 | 96.2 | 105 | 97.2 | 57.9 | 28.9 | 92.1 | 93.7 | 100 | 75.3 | 0.5 | 93 | 95.1 | 92.6 | 86.1 | 13.8 | 93 | 105 | 94.9 | 90.9 | 0.2
2 | CC(C)n1nc(-c2cc3cc(O)ccc3[nH]2)c2c(N)ncnc21 [PP242] | 208 | 652 | 927 | 203 | 1260 | 13.1 | 10.8 | 9.8 | 16 | 8.7 | 104 | 88.9 | 80.4 | 41.4 | 31.3 | 100 | 121 | 90.2 | 50 | 19.8 | 99.2 | 99 | 96 | 56.1 | 16.4 | 107 | 94.2 | 79.6 | 26.5 | 20.1 | 107 | 105 | 96.2 | 67.9 | 15.9
3 | Cc1c(C(=O)NC2CCCCC2)sc2nc3ccc(N)cc3n12 | > 10000 | > 10000 | > 10000 | > 10000 | > 10000 | 0 | 0 | 0 | 0 | 0 | 105 | 97 | 101 | 103 | 104 | 94.1 | 101 | 92.8 | 104 | 107 | 102 | 94.6 | 96.4 | 98.1 | 102 | 93.7 | 109 | 83.3 | 97.4 | 103 | 99.4 | 103 | 96.9 | 103 | 107
4 | CCCc1c2oc(C(=O)O)cc(=O)c2cc2c(=O)cc(C(=O)O)n(CC)c12 [nedocromil] | > 10000 | > 10000 | > 10000 | > 10000 | > 10000 | 0 | 0 | 0 | 0 | 0 | 98.3 | 99.8 | 97.9 | 105 | 100 | 113 | 86.5 | 91.5 | 90.6 | 100 | 102 | 106 | 99.4 | 104 | 97.1 | 102 | 99.4 | 103 | 107 | 98.4 | 121 | 100 | 115 | 95.7 | 109
